Test results as given in the NIST ThermoML archive (doi:10.1016/j.fluid.2012.12.008).

Settings: Liquid; for mass density: Vibrating tube method; for thermal conductivity: Hot wire method

CCCC[n+]1ccccc1.F[B-](F)(F)F [1-butylpyridinium tetrafluoroborate]
Settings | mass density, 293.15 K [kg/m3] | mass density, 303.15 K [kg/m3] | mass density, 313.15 K [kg/m3] | mass density, 323.15 K [kg/m3] | mass density, 333.15 K [kg/m3] | mass density, 343.15 K [kg/m3] | mass density, 353.15 K [kg/m3] | thermal conductivity, 294.2 K [W/m/K] | thermal conductivity, 314.3 K [W/m/K] | thermal conductivity, 334.3 K [W/m/K]
100 kPa | 1216.5 | 1209.5 | 1202.6 | 1196 | 1188.9 | 1182 | 1175.4 | 0.171 | 0.17 | 0.169
5000 kPa | 1219 | 1211.9 | 1205.1 | 1198.5 | 1191.4 | 1184.5 | 1177.9 | – | – | –
10000 kPa | 1221.1 | 1214.3 | 1207.6 | 1200.9 | 1193.9 | 1187 | 1180.6 | 0.171 | 0.171 | 0.171
15000 kPa | 1223.4 | 1216.4 | 1209.9 | 1203.2 | 1196.4 | 1189.5 | 1183.3 | – | – | –
20000 kPa | 1225.5 | 1218.7 | 1212 | 1205.5 | 1198.8 | 1191.9 | 1185.8 | 0.173 | 0.173 | 0.172

CCCCCC[n+]1ccccc1.F[B-](F)(F)F [1-hexylpyridinium tetrafluoroborate]
Settings | mass density, 293.15 K [kg/m3] | mass density, 303.15 K [kg/m3] | mass density, 313.15 K [kg/m3] | mass density, 323.15 K [kg/m3] | mass density, 333.15 K [kg/m3] | mass density, 343.15 K [kg/m3] | mass density, 353.15 K [kg/m3] | thermal conductivity, 294.2 K [W/m/K] | thermal conductivity, 314.3 K [W/m/K] | thermal conductivity, 334.3 K [W/m/K]
100 kPa | 1157 | 1150.3 | 1143.5 | 1137 | 1130 | 1123.4 | 1116.8 | 0.163 | 0.163 | 0.161
5000 kPa | 1159.5 | 1152.9 | 1146.1 | 1139.7 | 1132.7 | 1126 | 1119.5 | – | – | –
10000 kPa | 1161.8 | 1155.3 | 1148.7 | 1142.2 | 1135.2 | 1128.7 | 1122.3 | 0.165 | 0.163 | 0.162
15000 kPa | 1164.1 | 1157.6 | 1151.1 | 1144.5 | 1137.8 | 1131.2 | 1125 | – | – | –
20000 kPa | 1166.5 | 1159.9 | 1153.4 | 1146.9 | 1140.3 | 1133.8 | 1127.6 | 0.166 | 0.164 | 0.163

CCCCCCCC[n+]1ccccc1.F[B-](F)(F)F [1-octylpyridinium tetrafluoroborate]
Settings | mass density, 293.15 K [kg/m3] | mass density, 303.15 K [kg/m3] | mass density, 313.15 K [kg/m3] | mass density, 323.15 K [kg/m3] | mass density, 333.15 K [kg/m3] | mass density, 343.15 K [kg/m3] | mass density, 353.15 K [kg/m3] | thermal conductivity, 294.2 K [W/m/K] | thermal conductivity, 314.3 K [W/m/K] | thermal conductivity, 334.3 K [W/m/K]
100 kPa | 1111.2 | 1104.4 | 1097.6 | 1091.1 | 1084.4 | 1077.9 | 1071.6 | 0.16 | 0.16 | 0.158
5000 kPa | 1113.8 | 1107.1 | 1100.3 | 1093.9 | 1087.1 | 1080.7 | 1074.4 | – | – | –
10000 kPa | 1116.2 | 1109.6 | 1103 | 1096.6 | 1089.9 | 1083.6 | 1077.3 | 0.163 | 0.161 | 0.159
15000 kPa | 1118.6 | 1112.1 | 1105.4 | 1099 | 1092.6 | 1086.2 | 1080.1 | – | – | –
20000 kPa | 1120.9 | 1114.4 | 1107.8 | 1101.5 | 1095.2 | 1089 | 1083 | 0.165 | 0.164 | 0.161
